Values quoted from earlier work as cited in patent US6403571B2, “Combination therapy for reducing the risks associated with cardiovascular disease” (Merck & Co., Inc., priority 1996, dated 2002).
Counter-ions that a name gives are not always drawn. Values belong to the compound of their own block, whether it stands above or below them. Where a SMILES comes first, the peptide text is derived from it. Bridges are numbered along the chain shown (N, C = ends). [ ]: non-standard residue; d: D form. hArg = N=C(N)NCCCC[C@H](N)C(=O)O; Mpa = O=C(O)CCS

What was measured:
GP IIb/IIIa [1] = target: T1, GP IIb/IIIa (Homo sapiens, UniProt P05106+P08514)
αvβ3 = αvβ3 (Homo sapiens, UniProt P05106+P06756)
Sequence of αvβ3 (P06756 31-889 limits assumed): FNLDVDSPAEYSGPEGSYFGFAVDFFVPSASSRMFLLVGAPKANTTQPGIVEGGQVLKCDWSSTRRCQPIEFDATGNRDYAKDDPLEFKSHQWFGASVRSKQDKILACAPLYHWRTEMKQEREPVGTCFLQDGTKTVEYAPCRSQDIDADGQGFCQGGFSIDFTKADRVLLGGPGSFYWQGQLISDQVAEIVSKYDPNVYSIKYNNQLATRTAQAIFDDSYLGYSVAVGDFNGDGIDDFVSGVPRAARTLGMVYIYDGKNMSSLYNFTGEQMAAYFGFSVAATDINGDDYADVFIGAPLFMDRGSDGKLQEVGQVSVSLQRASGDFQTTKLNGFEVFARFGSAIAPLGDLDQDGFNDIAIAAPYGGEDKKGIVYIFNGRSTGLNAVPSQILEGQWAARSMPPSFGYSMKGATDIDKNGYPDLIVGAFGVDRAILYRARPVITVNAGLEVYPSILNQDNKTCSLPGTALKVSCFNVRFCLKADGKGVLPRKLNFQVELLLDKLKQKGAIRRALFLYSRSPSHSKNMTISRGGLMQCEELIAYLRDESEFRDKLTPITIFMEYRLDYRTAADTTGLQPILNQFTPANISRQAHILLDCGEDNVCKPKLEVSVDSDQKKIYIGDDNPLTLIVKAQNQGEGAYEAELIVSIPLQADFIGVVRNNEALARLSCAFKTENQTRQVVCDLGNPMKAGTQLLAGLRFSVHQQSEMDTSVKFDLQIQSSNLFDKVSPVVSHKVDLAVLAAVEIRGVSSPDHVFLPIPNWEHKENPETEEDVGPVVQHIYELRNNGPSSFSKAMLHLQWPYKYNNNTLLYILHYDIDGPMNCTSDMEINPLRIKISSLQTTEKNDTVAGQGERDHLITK
Sequence of αvβ3 (P06756 891-1048 partner limits assumed): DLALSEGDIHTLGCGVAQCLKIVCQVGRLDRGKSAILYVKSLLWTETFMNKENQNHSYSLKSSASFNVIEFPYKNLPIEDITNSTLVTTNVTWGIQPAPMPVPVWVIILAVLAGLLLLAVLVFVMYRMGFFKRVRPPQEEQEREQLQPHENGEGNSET
Sequence of αvβ3 (P05106 27-788): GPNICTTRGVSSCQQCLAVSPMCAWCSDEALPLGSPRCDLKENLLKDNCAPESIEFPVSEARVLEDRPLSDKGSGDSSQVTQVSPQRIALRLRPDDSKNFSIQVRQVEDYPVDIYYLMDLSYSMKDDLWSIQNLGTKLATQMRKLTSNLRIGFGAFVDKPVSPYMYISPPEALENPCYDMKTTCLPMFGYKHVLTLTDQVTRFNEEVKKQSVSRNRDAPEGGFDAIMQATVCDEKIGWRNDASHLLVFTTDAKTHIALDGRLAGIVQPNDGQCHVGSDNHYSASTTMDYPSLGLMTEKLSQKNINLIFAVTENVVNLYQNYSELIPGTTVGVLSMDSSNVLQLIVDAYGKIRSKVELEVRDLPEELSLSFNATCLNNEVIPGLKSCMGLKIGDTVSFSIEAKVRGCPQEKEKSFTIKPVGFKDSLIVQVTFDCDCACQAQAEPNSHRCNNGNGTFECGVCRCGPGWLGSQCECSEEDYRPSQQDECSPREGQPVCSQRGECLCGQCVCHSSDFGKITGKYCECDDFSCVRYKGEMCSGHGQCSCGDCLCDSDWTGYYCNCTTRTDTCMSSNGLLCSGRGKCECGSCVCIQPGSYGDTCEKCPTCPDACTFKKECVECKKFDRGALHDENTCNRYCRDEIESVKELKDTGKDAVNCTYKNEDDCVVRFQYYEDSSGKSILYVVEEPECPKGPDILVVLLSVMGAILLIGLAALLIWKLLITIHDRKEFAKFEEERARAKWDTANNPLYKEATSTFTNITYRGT

GP IIb/IIIa [2] = target: T1, GP IIb/IIIa; details: for selectivity for GP IIb/IIIa: administered intravenously
[3] = prodrug, requires biotransformation in vivo to its active form

selectivity for GP IIb/IIIa (GP IIb/IIIa [2]): selective
Compound: CCCCS(=O)(=O)N[C@@H](Cc1ccc(OCCCCC2CCNCC2)cc1)C(=O)O [MK-383, 2-S-(n-Butylsulfonylamino)-3[4-piperidin-4-yl)butyloxyphenyl]propionic acid hydrochloride]

selectivity for GP IIb/IIIa (GP IIb/IIIa [2]): selective
Compound: N=C(N)c1ccc(C(=O)N[C@@H](Cc2ccc(O)cc2)C(=O)N2CCC(OCC(=O)O)CC2)cc1 [Ro 44-9883]

Further lines, the compound ahead of its results:

Compound: 7E3: monoclonal antibody which blocks the GP IIb/IIIa receptor and the αvβ3 receptor [Compound 7E3]
need for transfusion (GP IIb/IIIa [1]; 7E3 added to heparin and aspirin, increasing from 3%): 6%
incidence of patients with decreased hematocrit (GP IIb/IIIa [1]; 7E3 added to heparin and aspirin, increasing from 7%): 15%
combined endpoints of death, non-fatal myocardial infarction (MI) and need for urgent revascularization (GP IIb/IIIa [1]; 7E3 added to standard regime of heparin and aspirin, decrease from 12.8% without blockade): 8.3%

Compound: N=C(N)NCCCC[C@@H]1NC(=O)CCSSC[C@@H](C(N)=O)NC(=O)[C@@H]2CCCN2C(=O)[C@H](Cc2c[nH]c3ccccc23)NC(=O)[C@H](CC(=O)O)NC(=O)CNC1=O [Integrelin] ([Mpa][hArg]GDWPC-NH2; disulfide 1-7)
effect on ligand binding to αvβ3 (αvβ3): very little effect
effect on ligand binding to GP IIb/IIIa (GP IIb/IIIa [2]): inhibits ligand binding

Compound: C#C[C@H](CC(=O)OCC)NC(=O)CCC(=O)Nc1ccc(C(=N)N)cc1 [SC54684, ethyl 3-[[4-[[4-(aminoiminomethyl)phenyl]amino]-1,4-dioxobutyl]amino]-4-pentynoate]
oral bioavailability [3]: high oral bioavailability
